The text below walks through data of ChEMBL document CHEMBL5042541 (J Med Chem, 2022).

The target in one data set is Keap1/Nrf2 (Homo sapiens, UniProt Q14145).
The nature of data set [1]: Lipophilicity, logD of compound at pH 7.5. Format: physicochemical. To be noted: buffer.

Some results are limits rather than exact numbers.

Sequence of Keap1/Nrf2 (Q16236 whole entry): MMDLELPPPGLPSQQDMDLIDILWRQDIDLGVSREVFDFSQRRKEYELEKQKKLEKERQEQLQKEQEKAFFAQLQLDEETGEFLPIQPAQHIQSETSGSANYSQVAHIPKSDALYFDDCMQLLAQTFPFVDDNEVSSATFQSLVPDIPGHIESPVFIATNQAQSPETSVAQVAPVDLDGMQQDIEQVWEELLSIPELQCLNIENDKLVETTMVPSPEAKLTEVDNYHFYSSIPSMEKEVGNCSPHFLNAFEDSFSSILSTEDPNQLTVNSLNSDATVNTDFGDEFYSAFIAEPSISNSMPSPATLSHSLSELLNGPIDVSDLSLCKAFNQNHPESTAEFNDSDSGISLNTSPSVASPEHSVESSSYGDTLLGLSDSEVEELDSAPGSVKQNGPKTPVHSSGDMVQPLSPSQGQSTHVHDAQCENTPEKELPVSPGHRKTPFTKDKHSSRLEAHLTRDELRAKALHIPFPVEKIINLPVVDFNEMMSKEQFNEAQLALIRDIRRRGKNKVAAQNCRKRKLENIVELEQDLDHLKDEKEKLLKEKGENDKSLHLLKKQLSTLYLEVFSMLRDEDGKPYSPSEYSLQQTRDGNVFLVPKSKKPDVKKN
Sequence of Keap1/Nrf2 (Q14145 whole entry): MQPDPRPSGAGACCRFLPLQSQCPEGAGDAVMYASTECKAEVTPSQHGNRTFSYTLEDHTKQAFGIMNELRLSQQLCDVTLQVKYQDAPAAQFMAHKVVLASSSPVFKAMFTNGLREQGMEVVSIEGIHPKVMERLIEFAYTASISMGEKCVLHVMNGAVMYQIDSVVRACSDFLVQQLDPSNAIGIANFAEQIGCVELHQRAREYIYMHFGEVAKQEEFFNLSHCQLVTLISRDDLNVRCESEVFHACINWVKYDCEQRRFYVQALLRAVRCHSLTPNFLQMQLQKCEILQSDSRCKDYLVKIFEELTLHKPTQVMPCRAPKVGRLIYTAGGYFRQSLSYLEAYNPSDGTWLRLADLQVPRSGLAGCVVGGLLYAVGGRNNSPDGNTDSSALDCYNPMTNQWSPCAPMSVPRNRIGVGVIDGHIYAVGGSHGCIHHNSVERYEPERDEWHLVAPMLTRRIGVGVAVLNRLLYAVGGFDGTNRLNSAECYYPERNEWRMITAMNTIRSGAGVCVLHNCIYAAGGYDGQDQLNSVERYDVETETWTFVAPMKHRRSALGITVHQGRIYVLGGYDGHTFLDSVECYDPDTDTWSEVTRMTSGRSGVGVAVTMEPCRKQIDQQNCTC

Usually Kd stands for a measure of binding affinity in units of concentration. Low values mean higher affinity, high ones lower affinity. For the compound `CC(=O)N1CCC[C@H]1C(=O)N[C@@H]1CNC(=O)c2ccccc2COC[C@H](C(=O)N(C)C)NC1=O`, the Kd on Keap1/Nrf2 is over 500 µM. A word on the logD: it is lipophilicity at a set pH, counting ionised and neutral species. Higher therefore signals a more lipophilic compound. For the compound `CC(=O)N1CCC[C@H]1C(=O)N[C@@H]1COC(=O)c2ccccc2CSC[C@H](C(=O)N(C)C)NC1=O`, the logD in data set [1] is 0.43.
